Source: US12060385B2, “Compounds for RNA capping and uses thereof” (GUANGZHOU HENOVCOM BIOSCIENCE CO., LTD., priority 2022, dated 2024)

How the values were obtained:
Type in all cases: biochemical
[1] = tested on: mRNA; assay: Capping efficiency of mRNA with different cap analogs by LC-MS; details: LC-MS after RNase H cleavage
Procedure: In a PCR machine, the annealing was performed using the following gradients: • 95° C. for 5 min; 65° C. for 2 min; 55° C. for 2 min; 40° C. for 2 min; 22° C. for 2 min • 5) Pre-treatment of magnetic beads were bound with probes.
100 μL of magnetic beads were placed on a magnetic rack and the preservation solution was removed. 100 μL of 1*BW solution was added, mixed well, and placed on the magnetic rack, and the supernatant was then removed. The washing step was repeated three times. 100 μL of wash A buffer was added, mixed well, and placed on the magnetic rack, and the supernatant was then removed. The washing step was repeated three times. 100 μL of wash B buffer was added, mixed well, and placed on the magnetic rack, and the supernatant was then removed. The washing step was repeated three times. After 120 μL of sample was added, the sample and the magnetic beads solution were incubated for 30 min at room temperature, and they were gently mixed well while incubation. • 6) mRNA was spliced to obtain 5′ end mRNA single stranded sequence and binding with the probe.
20 μL of RNase H (5 U/mL) was added, incubated for 3 hours at 37° C., mixed once every half an hour. 100 μL of 1*BW solution was added, mixed well, and placed on the magnetic rack, and then the supernatant was removed. The washing step was repeated three times. Subsequently, 100 μL of deionized aqueous solution was added, mixed well, and placed on the magnetic rack, and the supernatant was then removed. The washing step was repeated three times. 100 μL of 75% methanol at 80° C. was added, and the mixture was incubated at 80° C. on a heater plate for 3 min, and placed on the magnetic rack, and the supernatant was then pipetted. The sample was dried using an evaporative centrifuge at room temperature for 45 min to 10 μL, and then resuspended in 50 μL of 100 μM EDTA solution in 1% MeOH for LC-MS analysis.
The capping efficiencies of mRNA with different cap analogs were determined by LC-MS, and some compounds of the results were shown in Table 4.

[2] = target: T7 RNA Polymerase (Escherichia phage T7, UniProt P00573); details: 20 μL transcription system, Cap1 Analog 4 mM, 37° C. 2 to 3 hours
Chain of T7 RNA Polymerase (P00573 whole entry): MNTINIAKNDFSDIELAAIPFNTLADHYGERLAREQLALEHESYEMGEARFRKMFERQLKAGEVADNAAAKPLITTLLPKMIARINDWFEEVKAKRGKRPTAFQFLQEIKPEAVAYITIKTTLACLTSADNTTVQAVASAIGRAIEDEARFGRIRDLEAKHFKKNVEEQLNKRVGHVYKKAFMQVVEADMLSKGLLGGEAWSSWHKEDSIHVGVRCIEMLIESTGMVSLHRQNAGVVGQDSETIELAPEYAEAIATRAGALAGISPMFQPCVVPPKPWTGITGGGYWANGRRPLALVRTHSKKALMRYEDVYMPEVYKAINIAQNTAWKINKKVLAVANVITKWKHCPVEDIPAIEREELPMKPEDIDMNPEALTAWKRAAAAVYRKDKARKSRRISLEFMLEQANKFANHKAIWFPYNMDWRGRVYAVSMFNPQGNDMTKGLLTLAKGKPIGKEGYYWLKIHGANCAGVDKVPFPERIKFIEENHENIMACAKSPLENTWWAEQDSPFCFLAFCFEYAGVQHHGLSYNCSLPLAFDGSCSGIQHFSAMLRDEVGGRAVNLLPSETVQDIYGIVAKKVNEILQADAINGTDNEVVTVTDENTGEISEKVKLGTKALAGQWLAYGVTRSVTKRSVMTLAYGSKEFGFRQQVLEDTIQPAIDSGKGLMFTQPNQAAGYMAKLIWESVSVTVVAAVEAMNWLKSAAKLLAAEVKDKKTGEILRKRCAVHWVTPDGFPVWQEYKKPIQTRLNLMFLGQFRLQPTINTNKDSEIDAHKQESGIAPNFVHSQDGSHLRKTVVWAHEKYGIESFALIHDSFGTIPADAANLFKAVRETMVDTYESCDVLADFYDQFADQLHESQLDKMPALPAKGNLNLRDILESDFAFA
Procedure: • 1) A plasmid was linearized and the DNA template was purified. • 2) mRNA was synthesized in vitro with 51 types of capping structures of the present disclosure, or without any cap analogues. CleanCap®AG (3′OMe) (Trilink, N-7413) was applied as positive control group, uncapped mRNA was negative control group, and DNAase/RNase-Free water was a blank control group.
The system was incubated for 2 to 3 hours at 37° C. and digested by TURBO DNase for 15 min LiCl was used to precipitate mRNA for at least 30 min, or overnight, mRNA precipitates were then washed with 75% ethanol. After ethanol was quickly volatilized, mRNA was re-solubilized with RNase-Free water. • 3) The transcribed products were purified and the transcription yields were calculated.

[3] = tested on: mRNA Decapping Enzyme; assay: Stability of the capped mRNA against the mRNA decapping enzymes
Procedure: • 1) The capped mRNAs were heated at 65° C. for 10 min and their secondary structures were unfolded. • 2) The concentration of mRNA Deacpping Enzyme was diluted from the original concentration (100 U/uL) to 50 U/uL, 5 U/uL, 0.5 U/uL in a 10-fold gradient dilution ratio. • 3) The capped mRNAs were added to the reaction, and the amount of enzyme in the reaction was 50 U, 5 U, 0.5 U, 0 U, respectively. The mixture was mixed with a pipette, and was incubated at 37° C. for 1 hour.
• 4) The RNA was purified using a LiCl Precipitation method, and then diluted to 500 ng/uL*20 uL for subsequent cell transfection. • 5) The cells were transfected with mRNA, and luciferase expression was detected in the same method as Experiment 2.
In FIG. 1, the luminescence unit of luciferase expressed by mRNA without decapping enzyme treatment (0 U) was 100%, and the percentage of the luminescence unit of luciferase expressed by capped mRNA treated with different concentrations of […] to the luminescence unit of luciferase expressed by capped mRNA without decapping enzyme treatment was calculated.

CO[C@@H]1[C@H](OP(=O)([O-])OC[C@H]2O[C@@H](n3cnc4c(=O)[nH]c(N)nc43)[C@H](O)[C@@H]2O)[C@@H](COP(=O)(O)OP(=O)(O)OP(=O)(O)OC[C@H]2O[C@@H](n3c[n+](C)c4c(=O)[nH]c(N)nc43)[C@H](O)[C@@H]2CNC(C)=O)O[C@H]1n1cnc2c(N)ncnc21 [Compound 6]
Capping efficiency [1]: A (100% > A ≥ 95%) | Final product mass obtained from the 20 μL of mRNA transcription system [2]: 103 µg

CCOC[C@H]1[C@@H](O)[C@H](n2c[n+](C)c3c(=O)[nH]c(N)nc32)O[C@@H]1COP(=O)(O)OP(=O)(O)OP(=O)(O)OC[C@H]1O[C@@H](n2cnc3c(N)ncnc32)[C@H](OC)[C@@H]1OP(=O)(O)OC[C@H]1O[C@@H](n2cnc3c(=O)[nH]c(N)nc32)[C@H](O)[C@@H]1O [Compound 139]
Capping efficiency [1]: A (100% > A ≥ 95%) | Final product mass obtained from the 20 μL of mRNA transcription system [2]: 116 µg

COCCOC[C@H]1[C@@H](O)[C@H](n2c[n+](C)c3c(=O)[nH]c(N)nc32)O[C@@H]1COP(=O)(O)OP(=O)(O)OP(=O)(O)OC[C@H]1O[C@@H](n2cnc3c(N)ncnc32)[C@H](OC)[C@@H]1OP(=O)(O)OC[C@H]1O[C@@H](n2cnc3c(=O)[nH]c(N)nc32)[C@H](O)[C@@H]1O [Compound 141]
Capping efficiency [1]: A (100% > A ≥ 95%) | Final product mass obtained from the 20 μL of mRNA transcription system [2]: 84 µg

COC[C@H]1[C@@H](O)[C@H](n2c[n+](C)c3c(=O)[nH]c(N)nc32)O[C@@H]1COP(=O)(O)OP(=O)(O)CP(=O)(O)OC[C@H]1O[C@@H](n2cnc3c(N)ncnc32)[C@H](OC)[C@@H]1OP(=O)(O)OC[C@H]1O[C@@H](n2cnc3c(=O)[nH]c(N)nc32)[C@H](O)[C@@H]1O [Compound 173]
Capping efficiency [1]: A (100% > A ≥ 95%) | Final product mass obtained from the 20 μL of mRNA transcription system [2]: 118 µg | Stability of capped mRNA against decapping enzyme (FIG. 1) ([3]; at low concentration of decapping enzyme): the same stability as that of N-7413 | Stability of capped mRNA against decapping enzyme (FIG. 1) ([3]; when the concentration of decapping enzyme was higher): a better stability than that of N-7413

CNC(=O)C[C@H]1[C@@H](O)[C@H](n2c[n+](C)c3c(=O)[nH]c(N)nc32)O[C@@H]1COP(=O)(O)OP(=O)(O)OP(=O)(O)OC[C@H]1O[C@@H](n2cnc3c(N)ncnc32)[C@H](OC)[C@@H]1OP(=O)(O)OC[C@H]1O[C@@H](n2cnc3c(=O)[nH]c(N)nc32)[C@H](O)[C@@H]1O [Compound 393]
Capping efficiency [1]: A (100% > A ≥ 95%) | Final product mass obtained from the 20 μL of mRNA transcription system [2]: 95 µg

CO[C@@H]1[C@H](OP(=O)([O-])OC[C@H]2O[C@@H](n3cnc4c(=O)[nH]c(N)nc43)[C@H](O)[C@@H]2O)[C@@H](COP(=O)(O)OP(=O)(O)OP(=O)(O)OC[C@H]2O[C@@H](n3c[n+](C)c4c(=O)[nH]c(N)nc43)[C@H](O)[C@@H]2CCN2CCOCC2)O[C@H]1n1cnc2c(N)ncnc21 [Compound 633]
Capping efficiency [1]: B (95% > B ≥ 90%) | Final product mass obtained from the 20 μL of mRNA transcription system [2]: 100 µg
